Where two headings read alike, the source gives them in different places.
Assays:
SARS-CoV-2 replicon [1] = assay: microbe, parasite or virus in culture; type: cell-based; conditions: Calu-1 cells, compound alone
SARS-CoV-2 replicon [2] = assay: microbe, parasite or virus in culture; type: cell-based; conditions: Huh-7.5 cells
SARS-CoV-2 replicon [3] = assay: microbe, parasite or virus in culture; type: cell-based
SARS-CoV-2 replicon [4] = assay: microbe, parasite or virus in culture; type: cell-based; conditions: for effect of p-gp inhibitors on potency: in the presence of CP-100356 or elacridar
SARS-CoV-2 replicon [5] = assay: microbe, parasite or virus in culture; type: cell-based; conditions: A549 cells, compound alone
SARS-CoV-2 replicon [6] = type: cell-based; conditions: concentrations up to 2 µM
293T cells = assay: Cytotoxicity assay (CellTiter-Glo) in replicon-transfected cells; conditions: range of concentrations tested
[7] = system: wild-type (wt) SARS-CoV-2; design: method as in doi:10.1101/2020.08.28.272880; conditions: ACE2 stably transfected A549 cells; read-out: EC50 against wild-type SARS-CoV-2 infection; cited from earlier work
[8] = Severe acute respiratory syndrome coronavirus 2
[9] = Severe acute respiratory syndrome coronavirus 2, Huh7.5
[10] = Severe acute respiratory syndrome coronavirus 2, HEK-293T, 30 h, read-out: EC50
[11] = Severe acute respiratory syndrome coronavirus 2, Vero cells, compound alone

SMILES | EC50 (SARS-CoV-2 replicon [1]; [8]) | EC50 (SARS-CoV-2 replicon [3]; [10]) | EC50 (SARS-CoV-2 replicon [4]; [11]) | EC50 (SARS-CoV-2 replicon [5]; [8]) | effect of p-gp inhibitors on potency (SARS-CoV-2 replicon [4]; Vero cells) | other results
Cc1cccc(/C=N/Nc2cc(N3CCOCC3)nc(OCCc3ccccn3)n2)c1 [Apilimod] | > 42000 nM |  |  |  |  | EC50 (SARS-CoV-2 replicon [2]; [9]): > 42000 nM
CN(C)C(=O)COC(=O)Cc1ccc(OC(=O)c2ccc(NC(=N)N)cc2)cc1 [Camostat] | > 42000 nM | > 42000 nM | > 42000 nM | > 42000 nM |  | 
COc1cc2c(cc1OC)CN(CCc1ccc(NC(=O)c3cccc4c(=O)c5cccc(OC)c5[nH]c34)cc1)CC2 [Elacridar] | > 8400 nM |  | > 4670 nM | > 4670 nM |  | antiviral activity when tested alone (SARS-CoV-2 replicon [6]): No antiviral activities were observed
CC(C)C[C@H](NC(=O)OCc1ccccc1)C(=O)N[C@H](C=O)C[C@@H]1CCNC1=O [GC373] |  |  |  |  | slight increase of the activities | EC50 (SARS-CoV-2 replicon [3]; read-out: EC50): 20.3 ± 5.3 nM; EC50 (SARS-CoV-2 replicon [4]; Vero cells, compound alone): 309 ± 43 nM; EC50 (SARS-CoV-2 replicon [1]): 30.1 ± 5.8 nM; EC50 (SARS-CoV-2 replicon [5]): 539 ± 69 nM
CC(C)C[C@H](NC(=O)OCc1ccccc1)C(=O)N[C@@H](CC1CCNC1=O)C(O)S(=O)(=O)O (stereo partly drawn) [GC376] |  |  |  |  |  | EC50 (SARS-CoV-2 replicon [3]; read-out: EC50): 20.8 ± 5.4 nM; EC50 (SARS-CoV-2 replicon [3]; read-out: potency (EC50) in inhibiting SARS-CoV-2 replicon replication, percent GFP signal): 22 nM; EC50 (SARS-CoV-2 replicon [3]; read-out: potency (EC50) in inhibiting SARS-CoV-2 replicon replication, percent luciferase activity): 29.2 nM; EC50 (SARS-CoV-2 replicon [4]; Vero cells, compound alone): 237 ± 74 nM; EC50 (SARS-CoV-2 replicon [1]): 19.8 ± 2 nM; EC50 (SARS-CoV-2 replicon [2]): 19.4 ± 4.9 nM; EC50 (SARS-CoV-2 replicon [5]): 570 ± 182 nM
CC(C)C[C@H](NC(=O)OCc1ccccc1)C(=O)N[C@@H](C[C@@H]1CCNC1=O)C(O)S(=O)(=O)[O-].[Na+] (stereo partly drawn) [GC376] |  |  |  |  | slight increase of the activities | cytotoxicity (293T cells): No cytotoxicity was detected
CCC(CC)COC(=O)[C@H](C)N[P@](=O)(OC[C@H]1O[C@@](C#N)(c2ccc3c(N)ncnn23)[C@H](O)[C@@H]1O)Oc1ccccc1 [GS-5734] | 31.5 ± 23 nM | 15.6 ± 5.1 nM | 2240 nM | 184 nM |  | EC50 [7]: 442 nM; EC50 (SARS-CoV-2 replicon [2]; [9]): 18.9 nM
N#C[C@@]1(c2ccc3c(N)ncnn23)O[C@H](CO)[C@@H](O)[C@H]1O [GS-441524] | 1330 nM | 603 ± 131 nM | 302 ± 20 nM | 1470 nM |  | EC50 (SARS-CoV-2 replicon [3]; Severe acute respiratory syndrome coronavirus 2, HEK-293T, 30 h, read-out: potency (EC50) in inhibiting SARS-CoV-2 replicon replication, percent GFP signal): 645 nM; EC50 (SARS-CoV-2 replicon [3]; Severe acute respiratory syndrome coronavirus 2, HEK-293T, 30 h, read-out: potency (EC50) in inhibiting SARS-CoV-2 replicon replication, percent luciferase activity): 503 nM; EC50 (SARS-CoV-2 replicon [2]; [9]): 1030 nM; cytotoxicity (293T cells): No cytotoxicity was detected
CC(C)(C)NC(=O)N[C@H](C(=O)N1C[C@H]2[C@@H]([C@H]1C(=O)NC(CC1CCC1)C(=O)C(N)=O)C2(C)C)C(C)(C)C (stereo partly drawn) [MK-3034] | 4790 nM | 3550 nM | 16600 nM | 19900 nM | slight increase of the activities | 
N=C(N)c1ccc2cc(OC(=O)c3ccc(N=C(N)N)cc3)ccc2c1 [Nafamostat] | > 42000 nM | > 42000 nM |  | > 42000 nM |  | EC50 (SARS-CoV-2 replicon [4]; Severe acute respiratory syndrome coronavirus 2, Vero C1008, Vero E6 cells (so in the source)): > 42000 nM
COc1cccc2[nH]c(C(=O)N[C@@H](CC(C)C)C(=O)N[C@@H](C[C@@H]3CCNC3=O)C(=O)CO)cc12 [PF-00835231] |  |  |  |  | dramatically increased the potency | EC50 (SARS-CoV-2 replicon [3]; read-out: EC50): 75.2 ± 19.1 nM; EC50 (SARS-CoV-2 replicon [4]; Vero cells, compound alone): 2190 nM; EC50 (SARS-CoV-2 replicon [1]): 24.7 ± 3.8 nM; EC50 (SARS-CoV-2 replicon [2]): 175 ± 56 nM; EC50 (SARS-CoV-2 replicon [5]): 76.3 ± 16.2 nM
CC(C)C[C@H](NC(=O)c1cc2ccccc2o1)C(=O)N[C@H]1CC[C@@H](C)N(S(=O)(=O)c2ccccn2)CC1=O [Relacatib] | > 42000 nM | > 42000 nM | > 42000 nM | > 42000 nM |  | 

Reference: PMC8053989 (Proceedings of the National Academy of Sciences of the …, 2021)
